Common to all, as to test: ≥ marks a high value that may be exact or a test limit, other limits are often not marked, values filed in µg/mL are converted to µM
Assay [1] concerns Bacillus megaterium ATCC 19213.
In assay [2] the test system is Bacillus subtilis NBRC 3513.
For assay [3], the system named is Staphylococcus aureus NBRC 12732.
Assay [4] concerns Staphylococcus epidermidis NBRC 12933.
Assay [5] relates to Acinetobacter baumannii.
Assay [6] has as its system Aeromonas caviae IP67-16T.
Assay [7] deals with Aspergillus fumigatus IP1025-70.
Assay [8] concerns Aspergillus niger IP218-53.
In assay [9] the test system is Candida albicans IP884-65.
In assay [10] the test system is Candida albicans IP886-65.
Assay [11] has as its system Cryptococcus neoformans IP960-67.
In assay [12] the test system is Cryptococcus neoformans IP962-67.
Assay [13] relates to Enterococcus faecalis IP103214.
The subject of assay [14] is Escherichia coli IP76-24.
In assay [15] the test system is Microsporum canis IP1194.
Assay [16] deals with Nocardia brasiliensis IP16-80.
For assay [17], the system named is Saccharomyces cerevisiae IP118079.
Assay [18] has as its system Staphylococcus aureus IP76-25.
Assay [19] relates to Trichophyton mentagrophytes IP877-71.
In assay [20] the test system is Trichophyton rubrum IP2043-92.
The subject of assay [21] is Trichophyton simii IP1063-74.
The subject of assay [22] is Trichophyton simii J43 IP903-65.
Assay [23] relates to Bacillus subtilis KCTC 1021.
Assay [24] relates to Candida albicans.
The subject of assay [25] is Escherichia coli.
Assay [26] has as its system Klebsiella pneumoniae ATCC 10031.
Assay [27] has as its system Micrococcus luteus ATCC 4698.
Assay [28] has as its system Proteus mirabilis ATCC 25933.
For assay [29], the system named is Pseudomonas aeruginosa ATCC 9027.
Assay [30] relates to Pseudomonas putida.
The test system of assay [31] is Saccharomyces cerevisiae.
For assay [32], the system named is Salmonella enterica subsp. enterica serovar Typhimurium ATCC 14028.
For assay [33], the system named is Serratia marcescens.
The subject of assay [34] is Shigella dysenteriae ATCC 9752.
Assay [35] concerns Staphylococcus epidermidis ATCC 12228.
Assay [36] deals with Escherichia coli ATCC 25922.
In assay [37] the test system is Staphylococcus aureus ATCC 25929.

Converted amounts (≈) assume the structure as drawn.

The text below walks through data of DBAASP.

Consider `CC[C@H](C)[C@H](NC(=O)[C@H](C)N)C(=O)N[C@@H](Cc1ccccc1)C(=O)N[C@H](C(=O)N[C@@H](Cc1ccccc1)C(=O)N[C@H](C(=O)N[C@@H](CCCN=C(N)N)C(=O)N[C@@H](Cc1c[nH]c2ccccc12)C(=O)N[C@@H](CC(C)C)C(=O)N[C@@H](CC(C)C)C(=O)N[C@@H](CCCCN)C(=O)O)[C@@H](C)CC)[C@@H](C)CC` [AIFIFIRWLLK], for which the MIC (in general, the smallest concentration in the dilution series that meets the test's criterion for growth inhibition) in assay [1] is 16 µM (≈ 22.7 µg/mL); in assay [2] it was at least 32 µM; in [3], 16 µM (≈ 22.7 µg/mL); in assay [4], at least 32 µM.

Take `CSCC[C@H](NC(=O)[C@H](Cc1c[nH]c2ccccc12)NC(=O)[C@H](CC(C)C)NC(=O)[C@H](C)N)C(=O)N[C@H](C(=O)N[C@@H](CC(C)C)C(=O)N[C@@H](CC(C)C)C(=O)N[C@@H](CCCCN)C(=O)N[C@@H](CCCCN)C(=O)N[C@H](C(=O)N[C@@H](CC(C)C)C(=O)N[C@@H](CCCCN)C(=O)N[C@@H](C)C(=O)N[C@@H](C)C(=O)N[C@@H](C)C(=O)N[C@@H](CCCCN)C(=O)N[C@@H](C)C(=O)N[C@@H](CC(C)C)C(=O)N[C@@H](CC(N)=O)C(=O)N[C@@H](C)C(=O)N[C@H](C(=O)N[C@@H](CC(C)C)C(=O)N[C@H](C(=O)NCC(=O)N[C@@H](C)C(=O)N[C@@H](CC(N)=O)C(=O)N[C@@H](C)C(=O)O)C(C)C)C(C)C)C(C)C)[C@@H](C)O` [ALWMTLLKKVLKAAAKALNAVLVGANA]: the MIC came to 4.5 µM (≈ 12.5 µg/mL) in assay [5]; 0.5 µM (≈ 1.39 µg/mL) in assay [6]; 20 µM (≈ 55.6 µg/mL) in assay [7]; 30 µM (≈ 83.4 µg/mL) in assay [8]; 20 µM (≈ 55.6 µg/mL) in [9]; 20 µM (≈ 55.6 µg/mL) in assay [10]. The MIC stood at 2 µM (≈ 5.56 µg/mL) in assay [11]; 1 µM (≈ 2.78 µg/mL) in assay [12]; 20 µM (≈ 55.6 µg/mL) in [13]; 4 µM (≈ 11.1 µg/mL) in assay [14]; 15 µM (≈ 41.7 µg/mL) in assay [15]; 10 µM (≈ 27.8 µg/mL) in assay [16]. Further, the MIC in assay [17] was 20 µM (≈ 55.6 µg/mL); in [18], 10 µM (≈ 27.8 µg/mL); in assay [19], 20 µM (≈ 55.6 µg/mL); in [20] it was at least 40 µM; in assay [21], 30 µM (≈ 83.4 µg/mL); in [22], 20 µM (≈ 55.6 µg/mL).

`CC[C@H](C)[C@H](NC(=O)CN)C(=O)N[C@@H](CCSC)C(=O)N[C@@H](CO)C(=O)N[C@H](C(=O)N[C@H](C(=O)N[C@@H](CCCCN)C(=O)N[C@@H](CC(=O)O)C(=O)N[C@H](C(=O)N[C@@H](C)C(=O)N[C@@H](CCCCN)C(=O)N[C@@H](CC(N)=O)C(=O)N[C@@H](C)C(=O)N[C@@H](C)C(=O)N[C@@H](CCCCN)C(=O)N[C@@H](CCC(=O)O)C(=O)N[C@@H](C)C(=O)N[C@@H](C)C(=O)N[C@@H](CCCCN)C(=O)NCC(=O)N[C@@H](C)C(=O)N[C@@H](CC(C)C)C(=O)N[C@@H](CO)C(=O)N[C@H](C(=O)N[C@@H](CC(C)C)C(=O)N[C@@H](CO)C(=O)N[C@H]1CSSC[C@@H](C(=O)O)NC(=O)[C@H]([C@@H](C)O)NC(=O)[C@H](CCCCN)NC(=O)[C@H](C)NC(=O)[C@H](CC(C)C)NC(=O)[C@H](CCCCN)NC1=O)[C@@H](C)O)C(C)C)C(C)C)[C@@H](C)CC` [GIMSIVKDVAKNAAKEAAKGALSTLSCKLAKTC]: the MIC in [23] is 3.01 µM (≈ 9.99 µg/mL); in assay [24] it was 45.2 µM (≈ 150 µg/mL); in [25] it was 22.6 µM (≈ 75 µg/mL); in [26], 7.53 µM (≈ 25 µg/mL); in assay [27], 0.753 µM (≈ 2.5 µg/mL); in assay [28], at least 60.2 µM. Also, the MIC in assay [29] was 15.1 µM (≈ 50 µg/mL); in assay [30], 15.1 µM (≈ 50 µg/mL); in assay [31], at least 45.2 µM; in [32], 45.2 µM (≈ 150 µg/mL); in assay [33] it was at least 60.2 µM; in assay [34], 7.53 µM (≈ 25 µg/mL). In assay [35], this compound registered an MIC of 3.01 µM (≈ 9.99 µg/mL).

`CC(C)C[C@H](NC(=O)[C@H](CC(C)C)NC(=O)[C@@H](NC(=O)[C@@H]1CCCN1C(=O)[C@H](CCCCN)NC(=O)[C@@H](N)[C@@H](C)O)[C@@H](C)O)C(=O)NCC(=O)N[C@@H](CC(C)C)C(=O)N1CCC[C@H]1C(=O)N[C@@H](CC(C)C)C(=O)NCC(=O)N[C@@H](C)C(=O)NCC(=O)N1CCC[C@H]1C(=O)N[C@@H](C)C(=O)N[C@@H](C)C(=O)NCC(=O)N1CCC[C@H]1C(=O)NCC(=O)N[C@@H](CCCCN)C(=O)N[C@@H](CCCN=C(N)N)C(N)=O` [TKPTLLGLPLGAGPAAGPGKR]: the MIC in assay [36] turned out to be 16 µM (≈ 31.5 µg/mL); in assay [37], 8 µM (≈ 15.8 µg/mL).
